Measured values reported in the supplement of paper PMC10307832.

Compound: Nc1ccn([C@@H]2O[C@H](CO)[C@@H](O)C2(F)F)c(=O)n1 [Gemcitabine]
Assay: relative viability (nuclei count vs DMSO), 5 days (fraction); higher = more cells survive
How it was run: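 Acceptance criteria were a control CV below 25% and at least one doubling per plate. Lung cancer cell lines in 1536-well plates got five library-drug doses (not always all listed) √10 apart by pinning and were left 5 days with no medium change. Viability divides treated-well nuclei by vehicle-well nuclei and is the median across plates. Nuclei were counted by MetaXpress from 4× Hoechst images.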

Row | Cell Line | relative viability (0.001 µM) | relative viability (0.003162 µM) | relative viability (0.01 µM) | relative viability (0.03162 µM) | relative viability (0.1 µM)
1 | COR-L 105 | 0.947 | 0.934 | 0.572 | 0.269 | 0.234
2 | LK-2 | 0.997 | 0.915 | 0.708 | 0.255 | 0.187
3 | NCI-H727 | 0.802 | 0.567 | 0.347 | 0.332 | 0.32
4 | RERF-LC-KJ | 1.01 | 1 | 0.973 | 0.496 | 0.247
5 | NCI-H2023 | 1.03 | 0.92 | 0.444 | 0.103 | 0.0642
6 | NCI-H322M | 0.813 | 0.375 | 0.295 | 0.281 | 0.304
7 | NCI-H1666 | 0.965 | 1 | 0.909 | 0.61 | 0.412
8 | SW 900 | 0.802 | 0.424 | 0.153 | 0.134 | 0.141
9 | NCI-H2087 | 1.04 | 0.852 | 0.349 | 0.132 | 0.118
10 | LU99A | 0.864 | 1.08 | 0.932 | 1.01 | 0.918
11 | HCC-366 | 0.992 | 0.939 | 0.535 | 0.0641 | 0.0314
12 | EKVX | 0.943 | 0.766 | 0.461 | 0.201 | 0.139
13 | NCI-H2342 | 0.922 | 0.972 | 0.777 | 0.438 | 0.305
14 | NCI-H1755 | 0.97 | 1 | 0.943 | 0.633 | 0.305
15 | NCI-H647 | 0.786 | 0.202 | 0.0889 | 0.0675 | 0.0582
16 | LC-2-ad | 1.03 | 0.763 | 0.762 | 0.316 | 0.159
17 | NCI-H1793 | 1.02 | 1.04 | 0.565 | 0.168 | 0.146
18 | HCC-827 | 1.05 | 0.928 | 0.783 | 0.51 | 0.252
19 | HCC-78 | 0.849 | 0.595 | 0.436 | 0.255 | 0.237

Row | Cell Line | relative viability (0.001 µM) | relative viability (0.003162 µM) | relative viability (0.01 µM) | relative viability (0.03162 µM) | relative viability (0.1 µM)
20 | NCI-H2085 | 1.05 | 0.954 | 0.852 | 0.792 | 0.439
21 | PC-14 | 0.97 | 0.407 | 0.151 | 0.0526 | 0.0522
22 | NCI-H1648 | 0.846 | 0.771 | 0.999 | 0.413 | 0.283
23 | A-427 | 0.96 | 0.867 | 0.584 | 0.293 | 0.143
24 | H3255 | 0.981 | 0.781 | 0.631 | 0.297 | 0.198
25 | HCC-44 | 0.99 | 0.815 | 0.935 | 0.527 | 0.264
26 | NCI-H1734 | 0.984 | 0.856 | 0.263 | 0.121 | 0.125
27 | NCI-H2228 | 0.973 | 0.695 | 0.235 | 0.161 | 0.132
28 | ABC-1 | 0.965 | 0.823 | 0.703 | 0.291 | 0.235
29 | COR-L23 | 0.992 | 0.941 | 0.701 | 0.117 | 0.0953
30 | NCI-H661 | 1.05 | 0.941 | 0.808 | 0.305 | 0.259
31 | NCI-H1993 | 0.974 | 0.958 | 0.604 | 0.441 | 0.558
32 | NCI-H1437 | 1.01 | 0.854 | 0.705 | 0.362 | 0.21
33 | UMC-11 | 1.04 | 0.992 | 0.974 | 0.869 | 0.375
34 | 201T | 0.939 | 0.958 | 0.988 | 0.697 | 0.482
35 | NCI-H358 | 0.972 | 0.415 | 0.179 | 0.154 | 0.157
36 | ChaGo-K-1 | 1.07 | 0.871 | 0.538 | 0.265 | 0.219
37 | NCI-H1650 | 1.04 | 0.572 | 0.271 | 0.154 | 0.163
38 | LOU-NH91 | 0.982 | 0.788 | 0.585 | 0.338 | 0.301
